What was measured:
Balb/c mice = assay: i.m. immunization of Balb/c mice with M72 antigen and liposomal adjuvant; splenocyte restimulation, intracellular cytokine staining; format: in vivo, mouse; details: for antigen-specific CD4+ and CD8+ IL-17A producing cells (Th17 response): M72 restimulated splenocytes, TDB at highest dose
RAW264.7 cells = assay: Cytokine (TNFα) response of mouse macrophage cell line; Table 2 'Murine'; format: cell-based; set-up: Maximum cytokine response Murine: unit not given here; details: NR = no response
Experimental: Compounds were also tested in a mouse macrophage cell line (FIG. 4B). RAW264.7 cells were subjected to increasing concentrations of the compounds and assessed for production of the cytokine TNFα.

[1] = tested on: peripheral blood mononuclear cells (PBMCs); assay: IL-6 induction in fresh human PBMCs; format: cell-based; details: for Maximum cytokine response h-IL-6 / Minimal Effective Concentration h-IL-6: human IL-6, NR = no response; for IL-6 production / activity in fresh PBMCs from multiple donors (in words): compounds in DMSO serially diluted in media, supernatants 18 h after treatment
Experimental: (§1) Tumor necrosis factor alpha (TNFα) and IL-6 production in peripheral blood mononuclear cells (PBMCs) was measured after exposure to various concentrations of the DAT compounds synthesized as shown above. Initial studies focused on two different methods of delivery of the DAT compounds to PBMC cultures. In the first delivery method, the indicated derivative compound was dissolved in isopropanol, serially diluted, and then dried to the bottom of a tissue culture plate. In the second delivery method, the indicated derivative compound was dissolved in DMSO and serially diluted into tissue culture media. In each method, PBMCs were added to the compounds and incubated at 37° C. TNFα (FIG. 1A) and IL-6 (FIG. 1B) were measured after 18-24 hours after treatment by ELISA assay.
The isolated PBMCs were exposed to increasing concentrations of the indicated compounds resuspended in DMSO and serially diluted in media. IL-6 levels were determined from supernatants eighteen hours after treatment (FIG. 3).

[2] = tested on: peripheral blood mononuclear cells (PBMCs); assay: Cytokine analysis of supernatants of stimulated, freshly prepared PBMCs; format: cell-based, human; details: compounds solubilized in DMSO
Experimental: as §1
Supernatants from the freshly prepared PBMCs stimulated with DAT compounds solubilized in DMSO (Example 5A) were analyzed for the cytokines that help drive Th1 cell or Th17 cell adaptive immune responses; IFNγ, IL-12 p70, IL-6, IL-1β, and IL-23. Minimal amounts of IL-12p70 were detected and IFNγ was undetectable. Therefore, both are not reported.

Mincle receptor = molecular target: T1, Mincle receptor (Mus musculus, UniProt Q9R0Q8); assay: HEK-Blue Mincle mouse reporter cells, NF-κB SEAP production; format: cell-based
T1 construct: expressed in transfected cells; host or cells: HEK-Blue Mincle reporter cells (HEK293-derived, NF-kB SEAP reporter)
T1 sequence (Q9R0Q8 1-214): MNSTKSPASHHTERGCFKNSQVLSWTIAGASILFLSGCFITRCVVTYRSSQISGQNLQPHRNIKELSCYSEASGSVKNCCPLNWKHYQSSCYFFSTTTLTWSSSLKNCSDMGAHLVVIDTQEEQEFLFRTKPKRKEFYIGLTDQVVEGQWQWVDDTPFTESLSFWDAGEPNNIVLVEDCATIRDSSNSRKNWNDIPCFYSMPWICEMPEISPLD
Experimental: Compounds were also tested in the commercial reporter Hek-Blue™ cell lines. Hek-Blue™ cells were treated with increasing concentrations of the indicated compound for 18 to 24 hours. Isolated supernatants were measured for NF-κB secreted embryonic alkaline phosphatase (SEAP) production with QUANTI-Blue™ reagent (FIG. 4A). SEAP production was robust for both the mouse and human reporter lines (FIG. 4A), indicating strong signaling through the Mincle receptor in both human and murine systems.

| Structure (SMILES) | antigen-specific CD4+ and CD8+ IL-17A producing cells (Th17 response) (Balb/c mice; liposomal formulation) | Maximum cytokine response Murine (RAW264.7 cells) | Minimal Effective Concentration Murine (RAW264.7 cells) [µM] | Maximum cytokine response h-IL-6 [1] [OD] | Minimal Effective Concentration h-IL-6 [1] [µM] | TNFα response in PBMCs (in words) [2] | IL-6 production / activity in fresh PBMCs from multiple donors (in words) [1] | increased potency (EC50) for induction of cytokines relative to other compounds ([1]; human PBMCs) | NF-κB SEAP production, mouse reporter line (Mincle receptor; 18 to 24 hours, QUANTI-Blue) | potency shift in comparison with other compounds, reporter cells (Mincle receptor; HEK-Blue Mincle reporter, compared with PBMC cytokine profiles) | IL-2 production compared to controls (Balb/c mice; 10 nmol group) | TNFα production compared to controls (Balb/c mice; higher doses) | IL-5 production (Th2 response) in restimulated cells (Balb/c mice; liposomal formulation, M72 vaccine) |
| --- | --- | --- | --- | --- | --- | --- | --- | --- | --- | --- | --- | --- | --- |
| CCCCCCCCCCCCCCCCCCCCCC(=O)OC[C@H]1O[C@H](O[C@H]2O[C@H](COC(=O)CCCCCCCCCCCCCCCCCCCCC)[C@@H](O)[C@H](O)[C@H]2O)[C@H](O)[C@@H](O)[C@@H]1O [TDB, trehalose dibehenate, reference compound] | induced some IL-17A | – | – | – | – | – | – | – | – | – | – | – | – |
| COc1cc(/C=C/C(=O)OC[C@H]2O[C@H](O[C@H]3O[C@H](COC(=O)/C=C/c4cc(OC)c(OC)c(OC)c4)[C@@H](O)[C@H](O)[C@H]3O)[C@H](O)[C@@H](O)[C@@H]2O)cc(OC)c1OC [UM1020] | – | 3.2 | 33.3 | 1.5 | 333 | higher responding | – | – | – | – | – | – | – |
| O=C(/C=C/c1ccc(O)c(O)c1)OC[C@H]1O[C@H](O[C@H]2O[C@H](COC(=O)/C=C/c3ccc(O)c(O)c3)[C@@H](O)[C@H](O)[C@H]2O)[C@H](O)[C@@H](O)[C@@H]1O [UM1021] | – | 3 | 333 | 2 | 333 | higher responding | induced some cytokine production | – | – | – | – | – | – |
| COc1cc(C)c(C(=O)OC[C@H]2O[C@H](O[C@H]3O[C@H](COC(=O)c4c(C)cc(OC)cc4OC)[C@@H](O)[C@H](O)[C@H]3O)[C@H](O)[C@@H](O)[C@@H]2O)c(OC)c1 [UM1022] | – | 3.3 | 37 | 3 | 333 | higher responding | reproducibly induced potent, robust IL-6 production | – | – | – | – | – | – |
| CC(C)c1cc(C(=O)OC[C@H]2O[C@H](O[C@H]3O[C@H](COC(=O)c4cc(C(C)C)cc(C(C)C)c4O)[C@@H](O)[C@H](O)[C@H]3O)[C@H](O)[C@@H](O)[C@@H]2O)c(O)c(C(C)C)c1 [UM1023, 6,6′-bis-(3,5-di-iso-propylsalisate)-α,α-trehalose] | – | 2.5 | 0.45 | – | – | higher responding | lower activity | – | – | – | – | – | – |
| CC(C)(C)c1cc(C(=O)OCC2OC(OC3OC(COC(=O)c4cc(C(C)(C)C)cc(C(C)(C)C)c4O)C(O)C(O)C3O)C(O)C(O)C2O)c(O)c(C(C)(C)C)c1 (stereo not drawn) [UM1024, 6,6′-bis-(3,5-di-tert-butylsalisate)-α,α-trehalose] | induced high levels of antigen-specific CD4+ and CD8+ IL17A producing cells | 3 | 0.45 | 3.5 | 1 | higher responding | – | over 1000 × | distinct very high peak at low concentration of compound | did not display a large leftward potency shift | substantially increased | increased compared to controls | seen in restimulated cells |

— patent US12319709B2, “Diaryl trehalose compounds and uses thereof” (THE UNIVERSITY OF MONTANA, priority 2018, dated 2025)
